Source: patent US20120094989A1, “5-HT RECEPTOR MODULATING COMPOUNDS” (priority 2009, published 2012)
pIC50, pKd: −log10 of the molar value. Several values for one entry are separate records, joined by “and”; a condition that tells them apart may be missing. Equal values may be shown once. Read-outs that look alike come from different tables or passages of the source.

Experiments:
human 5-HT4(b) receptor [1] = target: T1, human 5-HT4(b) receptor (Homo sapiens, UniProt Q13639); assay: Adenylyl cyclase assay (antagonist pKb, agonist/antagonist properties); assay type: biochemical; details: membranes of HEK293 cells stably expressing human 5-HT4(b) receptor; for Kb: hyphen-separated values taken as single determinations
Procedure: (§1) The development of HEK293 cell lines stably expressing human 5-HT4(b) receptors was described and published previously (Bach et al. 2001). Briefly, HEK293 cells (ATCC) were grown in Dulbecco's modified Eagle's medium with 10% foetal calf serum and penicillin (100 U/ml) and streptomycin (100 μg/ml). Cells were transfected with plasmid DNA (pcDNA3.1(−) containing human 5-HT4(b) receptor cDNA) using SuperFect Transfection Reagent (QIAGEN) according to the manufacturers protocol. Serial dilutions of transfected cells were plated in 96 well plates containing G418 (geneticin; Amersham) at 0.4 mg/ml, and isolated single colonies of cells transformed to the neomycin-resistant phenotype were expanded and tested for expression of serotonin receptors by measuring serotonin-stimulated adenylyl cyclase activity (Themmen et al. 1993). Transformed cells were always grown in the presence of G418 (0.4 mg/ml). For binding and adenylyl cyclase analysis, stable cell lines were grown and maintained in UltraCULTURE™ general purpose serum-free medium (BioWhittaker, Walkersville, Md., USA), supplemented with L-glutamine (2 mM), penicillin (100 U/ml) and streptomycin (100 μg/ml).
(§2) Membranes were prepared from stably transfected HEK293 cells cultured on 150-mm cell culture dishes and grown to 80% confluence in serum-free medium (UltraCULTURE™, BioWhittaker) with penicillin (10 U/ml) and 2 mM L-Glutamine (BioWhittaker). Cells were washed twice with 10 ml ice-cold HBSS, scraped with a rubber policeman in 10 ml ice-cold HBSS and collected by centrifugation at 800 g for 5 min at 4° C. The cell pellet was resuspended in 1 ml/dish ice-cold STE buffer (27% (w/v) sucrose, 50 mM Tris-HCl, pH 7.5 at 20° C., 5 mM EDTA) and homogenized with an Ultra-Turrax (IKA) homogenizer, using five 10 s bursts with 30 s cooling in ice-water between bursts. To remove nuclei, the homogenate was centrifuged at 300 g for 5 min at 4° C. and the supernatant was further centrifuged at 17000 g for 20 min at 4° C. and the supernatant removed. The crude membrane pellet was resuspended with ten strokes of tight fitting pestle B in a Dounce glass-glass homogenizer in 1 ml/dish ice-cold TE (50 mM Tris-HCl, pH 7.5 at RT, 5 mM EDTA). This procedure was repeated twice and the resuspended membranes were finally aliquotted and flash frozen in liquid nitrogen and stored at −70° C. until use.
Adenylyl cyclase activity was measured in membranes of HEK293 cells stably expressing the human 5-HT4(b) receptor (refs.) by determining conversion of [α-^32P]ATP to [^32P]cAMP in membranes prepared in STE by homogenization of cells grown and washed as described above in a Dounce glass-glass homogenizer by 10 strokes with the tight-fitting pestle. Membranes were kept on ice prior to assay. Adenylyl cyclase activities were measured in 10-μl aliquots in a final volume of 50 μl in the presence of 0.1 mM [α-^32P]ATP (1-2×10^6 cpm/assay), 4 mM MgCl2, 20 μM GTP, 1 mM EDTA, 1 mM [^3H]cAMP (ca. 10,000 cpm/assay), […] 3-isobutyl-1-methyl xanthine (IBMX; Sigma), a nucleoside triphosphate regenerating system consisting of 20 mM creatine phosphate (Sigma), 0.2 mg/ml creatine phosphokinase (Sigma) and 40 U/ml myokinase (Sigma) and additives described in the text and figures. When forskolin (Calbiochem, La Jolla, Calif., USA) was used the concentration was 100 μM. Incubations were for 20 min at 32° C. Cyclic AMP formed was quantified by the double column chromatography system of Salomon et al. (1974) as modified by Bockaert et al. (1976).
(§3) Binding and adenylyl cyclase data were analyzed by non-linear regression using Microsoft Excel with the Solver add-in, using the below equations.
Activation of adenylyl cyclase—The data were fit to the equation
where a is basal adenylyl cyclase activity, b is maximal adenylyl cyclase activity stimulated by the agonist, c is EC50, and x is the concentration of agonist.
(§4) IC50 values from competitive binding assays were converted to Kb values by the method of Cheng and Prusoff (1973).

human 5-HT4(b) receptor [2] = target: T1, human 5-HT4(b) receptor; assay: Radioligand binding assay with [3H]GR113808; details: for Kd: [3H]GR113808 competition, membranes of HEK293 cells stably expressing human 5-HT4(b) receptor, hyphen-separated values taken as single determinations, read-out: Binding affinity (pKd value) (converted)
Procedure: as §1, §2
Binding assays were performed on membranes of HEK293 cells stably expressing the human 5-HT4(b) receptor (refs.) in 96-well, round-bottom microtiter plates with total reaction volumes of 50-200 μl, containing the indicated concentration of [^3H]GR113808 with or without competing unlabelled ligand in a binding buffer containing 50 mM Tris-HCl (pH 7.5 at RT), 1 mM EDTA, 5 mM EGTA, 2 mM MgCl2, 1 mM ascorbate, 0.1% BSA and 100 μM GTP. The plates were incubated at 23 EC for 60 min and harvested onto UniFilter™-96 GF/C™ (Packard Instrument Co., Meriden, Conn., USA), presoaked in 0.3% polyethyleneimine (Sigma), using a Packard FilterMate Universal Harvester with 96-well format, and washed 4-6 times with approximately 0.25 ml/well of ice-cold buffer, containing 50 mM Tris-HCl (pH 7.0 at RT) and 2 mM MgCl2. The filters were dried and counted at approximately 40% efficiency in a Top-Count liquid scintillation counter (Packard), using 20 μl per filter well of Micro-Scint liquid scintillation cocktail (Packard).
as §3
Competitive binding assays—The data were fit to the equation
where a is non-specific binding, b is total binding in the absence of competitor, c is IC50, and x is the concentration of competitor. Where relevant, relative binding data were obtained by recalculating the data using a=0 and b=100.
as §4

hERG ion channel = target: T2, hERG ion channel (Homo sapiens, UniProt Q12809); assay: hERG tail current, patch-clamp in HEK-293 cells stably transfected with hERG; assay type: cell-based
T2 construct: expressed in transfected cells; host or cells: HEK-293, stably transfected
Procedure: The purpose of this study was to assess the effects of the above compounds on hERG (human ether-a-go-go related gene) tail current by examining the acute effect of the test compounds on the hERG ion channel in an appropriate in vitro test system. The human embryonic kidney cell (HEK-293), which has been stably transfected with hERG ion channel cDNA, is a preparation that is considered suitable for this purpose.
Four concentrations of each test compound were tested in a screening assay to determine the liability to block hERG channels. Using the patch-clamp technique, peak hERG tail current amplitude was measured prior to and following exposure to the compounds at the following nominal concentrations:
for approximately 7 to 32 minutes (n=3 cells for each concentration). In addition, peak hERG tail current amplitude was measured in a separate group of 3 cells, prior to and following exposure to vehicle (0.1% DMSO) for time-matched vehicle data correction. Terfenadine (at the submaximally effective concentration of 50 nM, n=3), a known inhibitor of the IKr current, was used as a positive control compound.
The test compound data were corrected for the mean effect of vehicle and rundown and the concentration-response data were plotted and fitted with a sigmoidal function, from which the IC50 values for each compound were calculated.

[3] = peak hERG tail current, HEK-293, corrected for vehicle and rundown, sigmoidal fit, read-out: hERG IC50
[4] = read-out: Antagonist pKb value (converted)

T1 sequence (Q13639 whole entry): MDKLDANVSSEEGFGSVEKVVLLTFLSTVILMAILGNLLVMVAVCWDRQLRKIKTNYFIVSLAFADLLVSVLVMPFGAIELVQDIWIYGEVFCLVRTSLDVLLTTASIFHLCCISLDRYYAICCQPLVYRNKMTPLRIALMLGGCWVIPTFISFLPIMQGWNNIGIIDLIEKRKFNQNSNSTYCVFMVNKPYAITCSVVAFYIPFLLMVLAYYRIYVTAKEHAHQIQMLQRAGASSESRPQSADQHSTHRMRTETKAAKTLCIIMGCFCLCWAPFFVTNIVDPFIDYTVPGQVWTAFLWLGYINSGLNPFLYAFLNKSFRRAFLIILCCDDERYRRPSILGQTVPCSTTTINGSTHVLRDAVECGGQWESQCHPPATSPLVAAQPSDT
T2 sequence (Q12809 whole entry): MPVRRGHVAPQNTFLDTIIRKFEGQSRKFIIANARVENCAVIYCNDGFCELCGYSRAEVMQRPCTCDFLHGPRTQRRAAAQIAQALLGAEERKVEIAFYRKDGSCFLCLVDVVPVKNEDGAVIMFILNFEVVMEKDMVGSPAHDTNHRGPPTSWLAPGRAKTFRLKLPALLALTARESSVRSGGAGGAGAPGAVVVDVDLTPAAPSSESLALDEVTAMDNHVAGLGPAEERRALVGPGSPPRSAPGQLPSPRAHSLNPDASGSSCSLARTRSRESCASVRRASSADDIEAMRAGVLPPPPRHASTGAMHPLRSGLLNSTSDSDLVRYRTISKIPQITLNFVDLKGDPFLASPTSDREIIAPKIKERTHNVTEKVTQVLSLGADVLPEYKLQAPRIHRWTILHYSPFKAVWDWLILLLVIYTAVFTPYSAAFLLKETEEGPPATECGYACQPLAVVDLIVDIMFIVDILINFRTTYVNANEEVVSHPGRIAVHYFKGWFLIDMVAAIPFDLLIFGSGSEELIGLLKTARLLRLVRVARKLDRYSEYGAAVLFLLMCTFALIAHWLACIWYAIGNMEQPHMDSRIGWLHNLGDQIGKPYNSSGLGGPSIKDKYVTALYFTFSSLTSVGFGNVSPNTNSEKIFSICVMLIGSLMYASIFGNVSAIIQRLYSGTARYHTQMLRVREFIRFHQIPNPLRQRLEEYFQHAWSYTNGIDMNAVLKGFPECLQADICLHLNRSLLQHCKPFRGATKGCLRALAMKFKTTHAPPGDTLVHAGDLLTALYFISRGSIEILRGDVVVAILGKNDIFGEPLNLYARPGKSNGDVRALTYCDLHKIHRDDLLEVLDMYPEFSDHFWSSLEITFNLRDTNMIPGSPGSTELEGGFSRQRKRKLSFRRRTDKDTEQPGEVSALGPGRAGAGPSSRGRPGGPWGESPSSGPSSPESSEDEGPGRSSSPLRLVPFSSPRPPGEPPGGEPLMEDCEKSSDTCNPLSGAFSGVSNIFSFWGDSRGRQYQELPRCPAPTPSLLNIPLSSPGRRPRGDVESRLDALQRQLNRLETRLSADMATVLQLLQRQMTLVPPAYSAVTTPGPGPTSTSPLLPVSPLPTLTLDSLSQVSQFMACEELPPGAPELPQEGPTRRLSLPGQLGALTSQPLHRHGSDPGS

| Compound | Agonist/Antagonist properties (human 5-HT4(b) receptor [1]) | pKd (human 5-HT4(b) receptor [2]) | Kb (human 5-HT4(b) receptor [1]; Antagonist pKb value) | further results |
| --- | --- | --- | --- | --- |
| O=C(NCC1CCN(Cc2ccc(-c3ccccc3-c3nn[nH]n3)cc2)CC1)c1c2n(c3ccccc13)CCCO2 [Compound 2] | Antagonist | 8.41 and 8.38 and 8.36 |  | pIC50 (hERG ion channel; [3]): 4.56 |
| O=C(OCC1CCN(Cc2ccc(-c3ccccc3-c3nn[nH]n3)cc2)CC1)c1c2n(c3ccccc13)CCCO2 [Compound 4] |  |  | 0.00447 nM |  |
| COC(=O)c1ccccc1-c1ccc(CN2CCC(COC(=O)c3c4n(c5ccccc35)CCCO4)CC2)cc1 [Compound 7] |  | 11.60 | 0.0132 nM and 0.0479 nM | pIC50 (hERG ion channel): 6.88 |
| O=C(O)c1ccccc1-c1ccc(CN2CCC(COC(=O)c3c4n(c5ccccc35)CCCO4)CC2)cc1 [Compound 8] |  | 10.44 and 10.11 | 0.0631 nM and 0.331 nM | pIC50 (hERG ion channel; [3]): 4.32 |
| COC(=O)c1ccccc1-c1ccc(CN2CCC(CNC(=O)c3cc(Cl)c(N)cc3OC)CC2)cc1 [Compound 17] |  |  |  | Kd (human 5-HT4(b) receptor [2]): 3.72 nM and 5.01 nM |
| COc1cc(N)c(Cl)cc1C(=O)NCC1CCN(Cc2ccc(-c3ccccc3C(=O)O)cc2)CC1 [Compound 18] |  |  |  | Kd (human 5-HT4(b) receptor [2]): 174 nM and 126 nM |
| COc1cc(N)c(Cl)cc1C(=O)NCC1CCN(Cc2ccc(-c3ccccc3-c3nn[nH]n3)cc2)CC1 [Compound 20] |  |  |  | Kd (human 5-HT4(b) receptor [2]): 18.6 nM and 27.5 nM |
| O=C(OCC1CCN(C2C3CC4C(C3C(=O)O)C42)CC1)c1c2n(c3ccccc13)CCCO2 (stereo not shown) [Compound 23] | Antagonist | 8.82 | 3.63 nM |  |
| O=C(OCC1CCN(C2CCC(C(=O)O)C2)CC1)c1c2n(c3ccccc13)CCCO2 (stereo not shown) [Compound 24] | Antagonist | 8.94 |  | Kb (human 5-HT4(b) receptor [1]; [4]): 2.51 nM; pIC50 (hERG ion channel; [3]): 3.68 |
| O=C(OCC1CCN(C2CCCC(C(=O)O)C2)CC1)c1c2n(c3ccccc13)CCCO2 (stereo not shown) [Compound 25] | Antagonist | 8.92 |  | Kb (human 5-HT4(b) receptor [1]; [4]): 2.51 nM |
| CC(C(=O)O)c1ccc(CN2CCC(COC(=O)c3c4n(c5ccccc35)CCCO4)CC2)cc1 (stereo not shown) [Compound 27] |  | 9.29 | 1.62 nM | pIC50 (hERG ion channel): 4.60 |
| CC(C)(C(=O)O)c1ccc(CN2CCC(COC(=O)c3c4n(c5ccccc35)CCCO4)CC2)cc1 [Compound 29] |  | 9.45 |  | Kb (human 5-HT4(b) receptor [1]; [4]): 1.66 nM |
| Cn1cc(C(=O)OCC2CCN(CCNS(C)(=O)=O)CC2)c2ccccc21 [GR113808, 1-methyl-1H-indole-3-carboxylic acid, [1-[2-[(methylsulfonyl)amino]ethyl]-4-piperidinyl]methyl ester, reference compound] | Antagonist | 9.95 and 10.41 | 0.0891 nM |  |
| CCCCN1CCC(CNC(=O)c2c3n(c4ccccc24)CCCO3)CC1 [SB207266, reference compound] | Antagonist |  |  | Kb (human 5-HT4(b) receptor [1]; [4]): 0.0537 nM and 0.0372 nM and 0.269 nM; Kd (human 5-HT4(b) receptor [2]): 0.263 nM and 0.209 nM and 0.166 nM and 0.0355 nM and 0.0407 nM |
